These results are taken from paper PMC4728427, “Mechanism of allosteric activation of TMEM16A/ANO1 channels by a commonly used chloride channel blocker” (British Journal of Pharmacology, 2016).

For this test, the target named is T1, Mouse TMEM16A (Mus musculus, UniProt Q8BHY3).
T1 construct: expressed in transfected cells; host or cells: HEK-293T
T1 sequence (Q8BHY3 1-960): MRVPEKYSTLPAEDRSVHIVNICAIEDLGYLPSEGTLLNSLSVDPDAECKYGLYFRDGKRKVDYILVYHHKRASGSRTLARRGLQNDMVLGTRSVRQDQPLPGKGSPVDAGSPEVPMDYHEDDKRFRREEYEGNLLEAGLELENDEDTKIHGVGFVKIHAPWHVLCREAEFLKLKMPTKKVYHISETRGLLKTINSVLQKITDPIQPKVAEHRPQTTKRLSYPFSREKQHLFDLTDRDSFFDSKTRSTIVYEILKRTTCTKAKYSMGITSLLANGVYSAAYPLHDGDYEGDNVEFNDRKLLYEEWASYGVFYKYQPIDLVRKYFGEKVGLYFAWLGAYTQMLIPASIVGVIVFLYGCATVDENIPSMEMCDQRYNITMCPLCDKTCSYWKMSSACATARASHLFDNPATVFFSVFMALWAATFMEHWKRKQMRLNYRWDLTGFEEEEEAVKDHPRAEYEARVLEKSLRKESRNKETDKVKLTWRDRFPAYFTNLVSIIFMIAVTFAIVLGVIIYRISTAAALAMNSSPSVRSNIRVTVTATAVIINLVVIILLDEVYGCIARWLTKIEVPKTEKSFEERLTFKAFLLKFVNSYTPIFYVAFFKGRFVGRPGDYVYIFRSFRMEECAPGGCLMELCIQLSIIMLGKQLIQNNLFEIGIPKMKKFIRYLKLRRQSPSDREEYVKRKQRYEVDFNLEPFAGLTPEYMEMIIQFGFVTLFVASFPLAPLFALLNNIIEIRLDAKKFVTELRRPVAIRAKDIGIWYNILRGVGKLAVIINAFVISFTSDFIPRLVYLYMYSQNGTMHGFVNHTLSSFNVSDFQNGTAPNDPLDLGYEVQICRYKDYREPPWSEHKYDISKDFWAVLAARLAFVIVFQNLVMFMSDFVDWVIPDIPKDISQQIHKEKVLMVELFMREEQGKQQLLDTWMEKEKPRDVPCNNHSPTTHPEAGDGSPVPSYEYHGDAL
As to the kind of experiment: Non-stationary noise analysis of whole-cell TMEM16A tail currents. It is filed as cell-based. The note with it: −70 mV tail pulse, 300 nM [Ca2+]i; for P o: control 0.09 ± 0.02; for single channel current i: control 0.22 ± 0.01. The method, then: For non‐stationary noise analysis (Heinemann and Conti, 1992; Tammaro and Ashcroft, 2007), 80–200 identical pulses to a test potential of −70 mV (filtered at 10 kHz and sampled at 50 kHz) were applied, and the mean response, I, was calculated. The variance, σ ^2, was computed from the average squared difference of consecutive traces. Background variance and current at 0 mV were subtracted, and the variance–mean plot was fit by (4) σ^2=iI−I^2/N,
with the single channel current, i, and the number of channels, N, as free parameters.
Non‐stationary noise analysis was performed in the presence of 300 nM [Ca^2+]i during a tail pulse to −70 mV (Figure 8). In the absence of A9C, the i of TMEM16A was 0.22 ± 0.01 pA (n = 9). In the presence of 100 and 1000 μM [A9C]ext, i was 0.22 ± 0.01 pA (n = 9) and 0.23 ± 0.02 pA (n = 9) respectively. […] In the absence of A9C, the P o of TMEM16A was 0.09 ± 0.02 (n = 9) while in the presence of 100 and 1000 μM [A9C]ext, the P o was 0.41 ± 0.06 (n = 9) and 0.62 ± 0.06 (n = 9) respectively. Thus, extracellular A9C increased TMEM16A channel P o at a fixed V m and [Ca^2+]i.

Regarding `O=C(O)c1c2ccccc2cc2ccccc12` [A9C, Anthracene‐9‐carboxylic acid], the P o runs as follows: (100 μM [A9C]ext) 0.41 ± 0.06; (1000 μM [A9C]ext) 0.62 ± 0.06. Also, the “single channel current i” value came out at 0.22 ± 0.01 pA (100 μM [A9C]ext) and 0.23 ± 0.02 pA (1000 μM [A9C]ext).
